Measurements reported in PubChem BioAssay AID2060609 (Molecular Pharmacology Branch, DTP, NCI, 2025).

Tested on: 855422-203-R-J1-PDC complex spheroids, viability
Test: Anticancer human tumor 855422-203-R-J1-PDC patient-derived bladder carcinoma cell line growth inhibition [CLK]
Settings: for IC50: curve of first compound; for viability, T/C: stronger effect = lower value
Procedure, shortened: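 Multi-cell-type spheroids combined patient-derived tumor cells with HUVEC endothelial cells and human mesenchymal stem cells. Paired agents were dosed in half-log steps down from about clinical Cmax, or from 10 microM where Cmax was unknown.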

[1] = second compound 0.0316 µM, first compound 0.0316 µM
[2] = second compound 0.0316 µM, first compound 0.1 µM
[3] = second compound 0.0316 µM, first compound 0.316 µM
[4] = second compound 0.0316 µM, first compound 1 µM
[5] = second compound 0.0316 µM, first compound 3.16 µM
[6] = second compound 0.0316 µM, first compound 10 µM
[7] = second compound 0.1 µM, first compound 0.0316 µM
[8] = second compound 0.1 µM, first compound 0.1 µM
[9] = second compound 0.1 µM, first compound 0.316 µM
[10] = second compound 0.1 µM, first compound 1 µM
[11] = second compound 0.1 µM, first compound 3.16 µM
[12] = second compound 0.1 µM, first compound 10 µM
[13] = second compound 0.316 µM, first compound 0.0316 µM
[14] = second compound 0.316 µM, first compound 0.1 µM
[15] = second compound 0.316 µM, first compound 0.316 µM
[16] = second compound 0.316 µM, first compound 1 µM
[17] = second compound 0.316 µM, first compound 3.16 µM
[18] = second compound 0.316 µM, first compound 10 µM
[19] = second compound 1 µM, first compound 0.0316 µM
[20] = second compound 1 µM, first compound 0.1 µM
[21] = second compound 1 µM, first compound 0.316 µM
[22] = second compound 1 µM, first compound 1 µM
[23] = second compound 1 µM, first compound 3.16 µM
[24] = second compound 1 µM, first compound 10 µM
[25] = second compound 3.16 µM, first compound 0.0316 µM
[26] = second compound 3.16 µM, first compound 0.1 µM
[27] = second compound 3.16 µM, first compound 0.316 µM
[28] = second compound 3.16 µM, first compound 1 µM
[29] = second compound 3.16 µM, first compound 3.16 µM
[30] = second compound 3.16 µM, first compound 10 µM
[31] = second compound 10 µM, first compound 0.0316 µM
[32] = second compound 10 µM, first compound 0.1 µM
[33] = second compound 10 µM, first compound 0.316 µM
[34] = second compound 10 µM, first compound 1 µM
[35] = second compound 10 µM, first compound 3.16 µM
[36] = second compound 10 µM, first compound 10 µM
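Further: spheroids exposed to drugs for seven days before readout.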
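Wherever viability, T/C is given: 100% = DMSO vehicle control wells.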

C=CC(=O)N1CCN(c2nc(=O)n(-c3c(C)ccnc3C(C)C)c3nc(-c4c(O)cccc4F)c(F)cc23)C(C)C1 (centres undefined) + CNC(=O)c1ccc(Nc2nc(OC3CCCC3)c3c(-c4ccc5nc(C)oc5c4)c[nH]c3n2)c(OC)c1
IC50 (second compound 0.0316 µM): > 10 µM
IC50 (second compound 0.1 µM): < 0.0316 µM
IC50 (second compound 0.316 µM): < 0.0316 µM
IC50 (second compound 1 µM): < 0.0316 µM
IC50 (second compound 3.16 µM): < 0.0316 µM
IC50 (second compound 10 µM): < 0.0316 µM
viability, T/C [1]: 78.8%
viability, T/C [2]: 91.5%
viability, T/C [3]: 104%
viability, T/C [4]: 103%
viability, T/C [5]: 179%
viability, T/C [6]: 127%
viability, T/C [7]: 47.5%
viability, T/C [8]: 50.9%
viability, T/C [9]: 45.8%
viability, T/C [10]: 41.6%
viability, T/C [11]: 43.5%
viability, T/C [12]: 23.9%
viability, T/C [13]: 21.1%
viability, T/C [14]: 19%
viability, T/C [15]: 21.8%
viability, T/C [16]: 27%
viability, T/C [17]: 22.7%
viability, T/C [18]: 23.4%
viability, T/C [19]: 21.2%
viability, T/C [20]: 17.7%
viability, T/C [21]: 21%
viability, T/C [22]: 22.5%
viability, T/C [23]: 21.5%
viability, T/C [24]: 19.4%
viability, T/C [25]: 16.2%
viability, T/C [26]: 18.3%
viability, T/C [27]: 18.6%
viability, T/C [28]: 18.9%
viability, T/C [29]: 17%
viability, T/C [30]: 14.1%
viability, T/C [31]: 19.4%
viability, T/C [32]: 17.1%
viability, T/C [33]: 19.5%
viability, T/C [34]: 29.2%
viability, T/C [35]: 17.6%
viability, T/C [36]: 16.7%

CC(CO)NC(=O)c1cc(-c2ccc(Cl)cc2)nn(-c2cnn(C)c2)c1=O (centres undefined) + CNC(=O)c1ccc(Nc2nc(OC3CCCC3)c3c(-c4ccc5nc(C)oc5c4)c[nH]c3n2)c(OC)c1
IC50 (second compound 0.0316 µM): > 10 µM
IC50 (second compound 0.1 µM): 3.54 µM
IC50 (second compound 0.316 µM): < 0.0316 µM
IC50 (second compound 1 µM): < 0.0316 µM
IC50 (second compound 3.16 µM): < 0.0316 µM
IC50 (second compound 10 µM): < 0.0316 µM
viability, T/C [1]: 99%
viability, T/C [2]: 78.6%
viability, T/C [3]: 87.3%
viability, T/C [4]: 95%
viability, T/C [5]: 96%
viability, T/C [6]: 80.9%
viability, T/C [7]: 50.1%
viability, T/C [8]: 50.6%
viability, T/C [9]: 55%
viability, T/C [10]: 63%
viability, T/C [11]: 46%
viability, T/C [12]: 42.5%
viability, T/C [13]: 23%
viability, T/C [14]: 21.9%
viability, T/C [15]: 22.9%
viability, T/C [16]: 22.4%
viability, T/C [17]: 20.8%
viability, T/C [18]: 21.8%
viability, T/C [19]: 18.8%
viability, T/C [20]: 19.7%
viability, T/C [21]: 19.8%
viability, T/C [22]: 20.7%
viability, T/C [23]: 20.5%
viability, T/C [24]: 21%
viability, T/C [25]: 24.3%
viability, T/C [26]: 20.9%
viability, T/C [27]: 22.7%
viability, T/C [28]: 22.2%
viability, T/C [29]: 22.3%
viability, T/C [30]: 20%
viability, T/C [31]: 16.7%
viability, T/C [32]: 21.2%
viability, T/C [33]: 22.2%
viability, T/C [34]: 20.5%
viability, T/C [35]: 19.9%
viability, T/C [36]: 20%
